Assay results as given in paper PMC9415947 (Pharmaceuticals, 2022).

Experiments:
Type in all cases: biochemical
[1] = target: T1, PI3Kβ (Homo sapiens, UniProt P42338); experiment: In vitro PI3K inhibition assay (ADP-Glo kinase assay), PI3Kβ; settings: for IC50: mean of two independent experiments; for Fold Selectivity β/δ: ratio IC50 PI3Kβ / IC50 PI3Kδ
T1 construct: purchased Merck Millipore
Experimental: (§1) All compounds were tested in a biochemical assay that measured the inhibition of phosphatidylinositol […] production by PI3K isoforms using the ADP-Glo kinase assay (Promega). In addition, the effects of synthesized compounds on B cell proliferation were measured.
(§2) The potency and selectivity of compounds were assessed by measuring the ability of PI3K kinases to convert ATP to ADP during an enzymatic reaction in the presence of decreasing doses of tested compounds. The experiments were carried out using the ADP-Glo kinase assay kit (Promega), according to the manufacturer’s protocol. PI3Kα, PI3Kβ, PI3Kδ, and PI3Kγ have been purchased from Merck Millipore and phosphoinositol-4,5-bisphosphate (PIP2) lipid vesicles with phosphoserine from ThermoFisher Scientific were used as a substrate in the enzymatic reaction.
(§3) After the reaction, the ADP-Glo reagent and the kinase detection reagent were added sequentially with 40 min of incubation (25 °C, 600 rpm) after adding each reagent. Finally, the luminescence intensity was measured and the IC50 was calculated using GraphPad Prism 7 software. The presented results are the mean value of IC50 from at least two independent experiments.

[2] = target: T2, PI3Kδ (Homo sapiens, UniProt O00329); experiment: In vitro PI3K inhibition assay (ADP-Glo kinase assay), PI3Kδ; settings: mean of two independent experiments
T2 construct: purchased Merck Millipore
T2 sequence (O00329 whole entry, looked up): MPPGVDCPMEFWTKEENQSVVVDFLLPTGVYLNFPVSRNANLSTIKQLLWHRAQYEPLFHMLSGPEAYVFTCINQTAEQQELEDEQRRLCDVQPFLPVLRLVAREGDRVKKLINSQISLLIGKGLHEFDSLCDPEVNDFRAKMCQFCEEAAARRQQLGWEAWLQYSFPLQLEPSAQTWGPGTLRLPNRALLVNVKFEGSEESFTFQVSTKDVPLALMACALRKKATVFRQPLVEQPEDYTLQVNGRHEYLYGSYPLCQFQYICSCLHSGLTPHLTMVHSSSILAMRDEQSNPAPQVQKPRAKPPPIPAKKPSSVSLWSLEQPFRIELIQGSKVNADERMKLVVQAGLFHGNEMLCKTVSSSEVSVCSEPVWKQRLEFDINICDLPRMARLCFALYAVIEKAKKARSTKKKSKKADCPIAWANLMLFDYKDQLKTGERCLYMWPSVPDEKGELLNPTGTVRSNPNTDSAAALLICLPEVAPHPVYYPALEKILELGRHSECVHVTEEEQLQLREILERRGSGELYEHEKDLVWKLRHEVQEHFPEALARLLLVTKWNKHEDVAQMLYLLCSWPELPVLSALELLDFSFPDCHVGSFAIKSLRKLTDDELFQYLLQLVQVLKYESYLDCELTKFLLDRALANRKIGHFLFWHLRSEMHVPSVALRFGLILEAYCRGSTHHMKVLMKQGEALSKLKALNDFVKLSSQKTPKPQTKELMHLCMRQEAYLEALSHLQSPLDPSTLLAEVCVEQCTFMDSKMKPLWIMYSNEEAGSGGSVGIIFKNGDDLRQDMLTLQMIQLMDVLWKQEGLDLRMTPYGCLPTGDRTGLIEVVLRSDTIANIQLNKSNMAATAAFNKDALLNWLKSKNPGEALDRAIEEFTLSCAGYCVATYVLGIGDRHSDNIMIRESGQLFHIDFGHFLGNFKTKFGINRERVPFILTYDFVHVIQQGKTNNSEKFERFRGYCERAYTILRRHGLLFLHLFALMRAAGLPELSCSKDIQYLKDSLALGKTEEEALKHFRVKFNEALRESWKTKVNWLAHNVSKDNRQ
Experimental: as §1, §2, §3

[3] = target: T3, PI3Kγ (Homo sapiens, UniProt P48736); experiment: In vitro PI3K inhibition assay (ADP-Glo kinase assay), PI3Kγ; settings: for IC50: mean of two independent experiments; for Fold Selectivity γ/δ: ratio IC50 PI3Kγ / IC50 PI3Kδ
T3 construct: purchased Merck Millipore
T3 sequence (P48736 whole entry): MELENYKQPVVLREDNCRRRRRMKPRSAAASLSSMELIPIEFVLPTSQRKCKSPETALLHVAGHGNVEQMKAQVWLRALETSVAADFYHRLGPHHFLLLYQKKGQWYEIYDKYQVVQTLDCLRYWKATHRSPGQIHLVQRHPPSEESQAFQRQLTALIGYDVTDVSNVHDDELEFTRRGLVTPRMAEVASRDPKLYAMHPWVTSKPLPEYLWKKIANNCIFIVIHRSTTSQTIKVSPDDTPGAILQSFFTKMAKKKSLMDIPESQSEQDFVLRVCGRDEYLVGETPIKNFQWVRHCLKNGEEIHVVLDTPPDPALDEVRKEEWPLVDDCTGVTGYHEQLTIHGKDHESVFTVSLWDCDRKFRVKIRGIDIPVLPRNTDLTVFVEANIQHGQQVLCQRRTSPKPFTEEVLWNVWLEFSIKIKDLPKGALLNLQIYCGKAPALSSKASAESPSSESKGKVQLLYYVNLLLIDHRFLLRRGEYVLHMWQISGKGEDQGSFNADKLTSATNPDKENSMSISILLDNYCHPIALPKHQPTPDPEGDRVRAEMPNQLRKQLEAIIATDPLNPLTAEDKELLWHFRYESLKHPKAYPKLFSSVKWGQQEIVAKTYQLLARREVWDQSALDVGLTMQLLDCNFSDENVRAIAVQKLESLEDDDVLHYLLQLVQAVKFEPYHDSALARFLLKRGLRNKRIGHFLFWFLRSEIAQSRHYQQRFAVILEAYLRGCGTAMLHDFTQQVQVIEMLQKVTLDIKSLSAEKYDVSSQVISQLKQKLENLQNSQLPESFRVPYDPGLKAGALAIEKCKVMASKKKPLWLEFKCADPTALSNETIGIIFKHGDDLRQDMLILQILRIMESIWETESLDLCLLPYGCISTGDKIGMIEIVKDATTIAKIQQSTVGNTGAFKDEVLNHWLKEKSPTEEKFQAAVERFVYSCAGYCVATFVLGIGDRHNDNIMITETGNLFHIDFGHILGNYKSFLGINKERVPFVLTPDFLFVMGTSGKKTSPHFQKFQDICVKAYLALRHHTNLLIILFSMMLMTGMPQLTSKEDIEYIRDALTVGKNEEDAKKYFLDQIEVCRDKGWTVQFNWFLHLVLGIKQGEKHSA
Experimental: as §1, §2, §3

[4] = target: T4, PI3Kα (Homo sapiens, UniProt P42336); experiment: In vitro PI3K inhibition assay (ADP-Glo kinase assay), PI3Kα; settings: for Fold Selectivity α/δ: ratio IC50 PI3Kα / IC50 PI3Kδ
T4 construct: purchased Merck Millipore (methods text)
T4 sequence (P42336 whole entry): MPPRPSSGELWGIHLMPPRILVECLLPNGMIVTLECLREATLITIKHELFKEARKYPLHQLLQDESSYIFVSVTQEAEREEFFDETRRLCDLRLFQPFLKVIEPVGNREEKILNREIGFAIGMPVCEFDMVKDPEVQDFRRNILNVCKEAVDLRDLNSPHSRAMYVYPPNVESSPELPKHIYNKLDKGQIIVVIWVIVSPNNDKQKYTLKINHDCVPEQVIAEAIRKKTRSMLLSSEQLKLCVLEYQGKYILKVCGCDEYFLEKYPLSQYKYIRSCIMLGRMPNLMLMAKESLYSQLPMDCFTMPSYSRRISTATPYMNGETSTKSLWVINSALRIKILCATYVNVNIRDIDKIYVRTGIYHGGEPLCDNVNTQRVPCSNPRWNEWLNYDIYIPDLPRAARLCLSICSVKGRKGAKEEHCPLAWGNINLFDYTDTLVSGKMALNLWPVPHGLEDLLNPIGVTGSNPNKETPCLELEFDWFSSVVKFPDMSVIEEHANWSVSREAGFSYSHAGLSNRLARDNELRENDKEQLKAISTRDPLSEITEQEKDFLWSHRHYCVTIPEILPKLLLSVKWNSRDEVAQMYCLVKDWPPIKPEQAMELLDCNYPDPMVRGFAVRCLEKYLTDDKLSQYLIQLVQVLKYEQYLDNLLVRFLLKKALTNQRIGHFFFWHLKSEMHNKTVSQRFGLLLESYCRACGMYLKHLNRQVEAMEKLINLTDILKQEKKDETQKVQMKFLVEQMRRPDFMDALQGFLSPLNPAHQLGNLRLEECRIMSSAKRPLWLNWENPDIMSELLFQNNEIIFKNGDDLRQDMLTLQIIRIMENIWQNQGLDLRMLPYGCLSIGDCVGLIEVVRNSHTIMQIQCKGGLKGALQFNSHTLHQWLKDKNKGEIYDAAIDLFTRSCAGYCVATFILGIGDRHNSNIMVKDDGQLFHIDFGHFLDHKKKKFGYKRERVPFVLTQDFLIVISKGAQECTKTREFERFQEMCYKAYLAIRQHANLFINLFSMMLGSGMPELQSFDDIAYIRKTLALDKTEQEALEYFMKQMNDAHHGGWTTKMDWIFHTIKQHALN
T4 sequence (P27986 whole entry partner): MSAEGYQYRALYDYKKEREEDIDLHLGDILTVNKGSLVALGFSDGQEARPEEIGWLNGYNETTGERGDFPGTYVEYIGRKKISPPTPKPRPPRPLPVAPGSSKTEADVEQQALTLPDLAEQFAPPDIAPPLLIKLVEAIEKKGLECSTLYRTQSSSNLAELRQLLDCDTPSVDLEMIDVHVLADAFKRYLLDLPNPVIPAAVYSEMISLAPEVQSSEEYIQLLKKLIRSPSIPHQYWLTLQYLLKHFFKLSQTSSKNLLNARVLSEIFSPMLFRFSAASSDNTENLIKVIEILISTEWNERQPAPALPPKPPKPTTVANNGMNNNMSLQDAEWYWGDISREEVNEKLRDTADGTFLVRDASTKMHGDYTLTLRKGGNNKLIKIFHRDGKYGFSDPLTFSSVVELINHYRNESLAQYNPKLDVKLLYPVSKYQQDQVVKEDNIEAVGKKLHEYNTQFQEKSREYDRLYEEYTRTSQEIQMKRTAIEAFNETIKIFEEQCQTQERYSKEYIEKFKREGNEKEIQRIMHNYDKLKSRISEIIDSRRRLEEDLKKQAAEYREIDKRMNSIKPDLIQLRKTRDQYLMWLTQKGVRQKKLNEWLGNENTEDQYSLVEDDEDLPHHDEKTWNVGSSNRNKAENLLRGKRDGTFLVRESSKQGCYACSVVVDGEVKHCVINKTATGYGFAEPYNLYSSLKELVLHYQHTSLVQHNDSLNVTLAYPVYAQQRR
Experimental: as §1, §2, §3

T1 sequence (P42338 whole entry, looked up): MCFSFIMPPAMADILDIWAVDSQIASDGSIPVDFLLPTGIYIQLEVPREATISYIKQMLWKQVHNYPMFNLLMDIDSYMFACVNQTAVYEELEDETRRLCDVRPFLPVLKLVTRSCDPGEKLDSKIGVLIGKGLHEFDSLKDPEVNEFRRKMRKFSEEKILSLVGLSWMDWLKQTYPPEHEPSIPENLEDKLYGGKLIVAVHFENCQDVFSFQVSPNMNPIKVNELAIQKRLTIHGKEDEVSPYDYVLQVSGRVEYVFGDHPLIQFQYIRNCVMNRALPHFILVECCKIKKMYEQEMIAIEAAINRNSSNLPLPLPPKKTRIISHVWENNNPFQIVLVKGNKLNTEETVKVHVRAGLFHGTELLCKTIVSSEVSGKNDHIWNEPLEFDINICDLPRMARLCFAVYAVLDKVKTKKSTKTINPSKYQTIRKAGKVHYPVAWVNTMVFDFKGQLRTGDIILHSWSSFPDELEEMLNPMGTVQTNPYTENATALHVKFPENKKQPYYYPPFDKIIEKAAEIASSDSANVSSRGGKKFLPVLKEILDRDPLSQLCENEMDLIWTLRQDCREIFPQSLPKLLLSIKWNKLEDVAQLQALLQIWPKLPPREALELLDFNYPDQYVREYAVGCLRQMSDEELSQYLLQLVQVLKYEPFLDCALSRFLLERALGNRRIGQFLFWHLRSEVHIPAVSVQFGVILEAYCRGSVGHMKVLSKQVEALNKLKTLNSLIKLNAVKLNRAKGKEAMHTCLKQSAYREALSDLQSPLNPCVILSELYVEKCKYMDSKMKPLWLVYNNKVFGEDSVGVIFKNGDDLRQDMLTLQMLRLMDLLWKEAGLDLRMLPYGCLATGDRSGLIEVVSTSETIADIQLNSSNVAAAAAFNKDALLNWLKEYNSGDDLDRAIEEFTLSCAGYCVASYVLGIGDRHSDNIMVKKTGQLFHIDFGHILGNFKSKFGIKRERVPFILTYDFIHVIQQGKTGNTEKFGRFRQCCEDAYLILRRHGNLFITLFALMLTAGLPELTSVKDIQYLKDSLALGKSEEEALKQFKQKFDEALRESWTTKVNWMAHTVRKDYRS

SMILES | IC50 [1] [µM] | Fold Selectivity β/δ [1] | IC50 [2] [nM] | IC50 [3] [µM] | Fold Selectivity γ/δ [3] | IC50 [4] [µM] | Fold Selectivity α/δ [4]
CC(C)(C)N1CCN(Cc2cc3nc(-n4c(C5CC5)nc5ccccc54)cc(N4CCOCC4)n3n2)CC1 [Compound 8, 1-{2-[(4-tert-butylpiperazin-1-yl)methyl]-7-(morpholin-4-yl)pyrazolo[1,5-a]pyrimidin-5-yl}-2-cyclopropyl-1H-benzimidazole] | 259 | 242 | 1070 | 271 | 253 | 82.5 | 77
Cc1nc2ccccc2n1-c1cc(N2CCOCC2)n2nc(CN3CCC(C(C)(C)O)CC3)cc2n1 [Compound 12, 2-(1-{[5-(2-methyl-1H-1,3-benzimidazol-1-yl)-7-(morpholin-4-yl)pyrazolo[1,5-a]pyrimidin-2-yl]methyl}piperidin-4-yl)propan-2-ol] | 195 | 222 | 878 | 119 | 136 | 30.5 | 35
Cc1nc2ccccc2n1-c1cc(N2CCOCC2)n2nc(CN3CCN(C(C)(C)C)CC3)cc2n1 [Compound 5, 1-{2-[(4-tert-butylpiperazin-1-yl)methyl]-7-(morpholin-4-yl)pyrazolo[1,5-a]pyrimidin-5-yl}-2-methyl-1H-benzimidazole] | 298 | 1264 | 236 | 175 | 742 | 10.6 | 45
CC(C)(O)C1CCN(C(=O)c2cc3nc(-n4c(C(F)F)nc5ccccc54)cc(N4CCOCC4)n3n2)CC1 [Compound 41] | – | – | 101 | 2.48 | 25 | – | –
O=C(c1cc2nc(-n3c(C(F)F)nc4ccccc43)cc(N3CCOCC3)n2n1)N1CCCC1CO (stereo not drawn) [Compound 44, (1-{5-[2-(difluoromethyl)-1H-1,3-benzodiazol-1-yl]-7-(morpholin-4-yl)pyrazolo[1,5-a]pyrimidine-2-carbonyl}pyrrolidin-2-yl)methanol] | – | – | 459 | 2.02 | 4.4 | – | –
O=C(c1cc2nc(-n3c(C(F)F)nc4ccccc43)cc(N3CCOCC3)n2n1)N1CCC(CO)CC1 [Compound 50, (1-{5-[2-(difluoromethyl)-1H-1,3-benzimidazol-1-yl]-7-(morpholin-4-yl)pyrazolo[1,5-a]pyrimidine-2-carbonyl}piperidin-4-yl)methanol] | – | – | 90 | 1.78 | 20 | – | –
CC(=O)NC1CCN(Cc2cc3nc(-n4c(C(F)F)nc5ccccc54)cc(N4CCOCC4)n3n2)CC1 [Compound 35, N-[1-({5-[2-(difluoromethyl)-1H-1,3-benzimidazol-1-yl]-7-(morpholin-4-yl)pyrazolo[1,5-a]pyrimidin-2-yl}methyl)piperidin-4-yl]acetamide] | – | – | 445 | 1.5 | 3.4 | – | –
FC(F)c1nc2ccccc2n1-c1cc(N2CCOCC2)n2nc(CN3CCC(F)(F)CC3)cc2n1 [Compound 28, 2-(difluoromethyl)-1-{2-[(4,4-difluoropiperidin-1-yl)methyl]-7-(morpholin-4-yl)pyrazolo[1,5-a]pyrimidin-5-yl}-1H-1,3-benzimidazole] | – | – | 443 | 1.71 | 3.9 | – | –
NC1CCN(C(=O)c2cc3nc(-n4c(C(F)F)nc5ccccc54)cc(N4CCOCC4)n3n2)C1 (stereo not drawn) [Compound 45, 1-{5-[2-(difluoromethyl)-1H-1,3-benzodiazol-1-yl]-7-(morpholin-4-yl)pyrazolo[1,5-a]pyrimidine-2-carbonyl}pyrrolidin-3-amine] | – | – | 1700 | 23.3 | 14 | – | –
CCc1nc2ccccc2n1-c1cc(N2CCOCC2)n2nc(CN3CCN(C(C)(C)C)CC3)cc2n1 [Compound 7, 1-{2-[(4-tert-butylpiperazin-1-yl)methyl]-7-(morpholin-4-yl)pyrazolo[1,5-a]pyrimidin-5-yl}-2-ethyl-1H-benzimidazole] | 266 | 690 | 385 | 258 | 671 | 28.7 | 74
CC(C)N1CCN(Cc2cc3nc(-n4c(C(F)F)nc5ccccc54)cc(N4CCOCC4)n3n2)CC1 [Compound 38, 2-(difluoromethyl)-1-[7-(morpholin-4-yl)-2-{[4-(propan-2-yl)piperazin-1-yl]methyl}pyrazolo[1,5-a]pyrimidin-5-yl]-1H-1,3-benzimidazole] | – | – | 38 | 13.3 | 351 | – | –
CC(C)(O)C1CCN(Cc2cc3nc(-n4c(C(F)F)nc5ccccc54)cc(N4CCOCC4)n3n2)CC1 [Compound 11, 2-[1-({5-[2-(difluoromethyl)-1H-benzimidazol-1-yl]-7-(morpholin-4-yl)pyrazolo[1,5-a]pyrimidin-2-yl}methyl)piperidin-4-yl]propan-2-ol] | – | – | 52 | 6.35 | 122 | 1.73 | 33
OCC1CCN(Cc2cc3nc(-n4c(C(F)F)nc5ccccc54)cc(N4CCOCC4)n3n2)CC1 [Compound 31, [1-({5-[2-(difluoromethyl)-1H-1,3-benzimidazol-1-yl]-7-(morpholin-4-yl)pyrazolo[1,5-a]pyrimidin-2-yl}methyl)piperidin-4-yl]methanol] | – | – | 593 | 8.32 | 14 | – | –
O=C(c1cc2nc(-n3c(C(F)F)nc4ccccc43)cc(N3CCOCC3)n2n1)N1CCN(C(=O)C2CC2)CC1 [Compound 43, 1-[2-(4-cyclopropanecarbonylpiperazine-1-carbonyl)-7-(morpholin-4-yl)pyrazolo[1,5-a]pyrimidin-5-yl]-2-(difluoromethyl)-1H-1,3-benzimidazole] | – | – | 63 | 3.83 | 61 | – | –
NC1CCN(Cc2cc3nc(-n4c(C(F)F)nc5ccccc54)cc(N4CCOCC4)n3n2)C1 (stereo not drawn) [Compound 20, 1-({5-[2-(difluoromethyl)-1H-1,3-benzimidazol-1-yl]-7-(morpholin-4-yl)pyrazolo[1,5-a]pyrimidin-2-yl}methyl)pyrrolidin-3-amine] | – | – | 1890 | 22.1 | 12 | – | –
CC(C)(C)N1CCN(Cc2cc3nc(-n4c(C(F)(F)F)nc5ccccc54)cc(N4CCOCC4)n3n2)CC1 [Compound 9, 1-{2-[(4-tert-butylpiperazin-1-yl)methyl]-7-(morpholin-4-yl)pyrazolo[1,5-a]pyrimidin-5-yl}-2-(trifluoromethyl)-1H-benzimidazole] | – | – | 907 | 135 | 149 | – | –
NC(=O)C1CCN(Cc2cc3nc(-n4c(C(F)F)nc5ccccc54)cc(N4CCOCC4)n3n2)CC1 [Compound 29, 1-({5-[2-(difluoromethyl)-1H-1,3-benzimidazol-1-yl]-7-(morpholin-4-yl)pyrazolo[1,5-a]pyrimidin-2-yl}methyl)piperidine-4-carboxamide] | – | – | 240 | 1.86 | 7.7 | – | –
CNC(=O)CN1CCN(Cc2cc3nc(-n4c(C(F)F)nc5ccccc54)cc(N4CCOCC4)n3n2)CC1 [Compound 36, 2-[4-({5-[2-(difluoromethyl)-1H-1,3-benzimidazol-1-yl]-7-(morpholin-4-yl)pyrazolo[1,5-a]pyrimidin-2-yl}methyl)piperazin-1-yl]-N-methylacetamide] | – | – | 63 | 1.25 | 20 | – | –
CC(C)(C)N1CCN(C(=O)c2cc3nc(-n4c(C(F)F)nc5ccccc54)cc(N4CCOCC4)n3n2)CC1 [Compound 40, 1-[2-(4-tert-butylpiperazine-1-carbonyl)-7-(morpholin-4-yl)pyrazolo[1,5-a]pyrimidin-5-yl]-2-(difluoromethyl)-1H-1,3-benzimidazole] | – | – | 84 | 48.8 | 581 | – | –
FC(F)c1nc2ccccc2n1-c1cc(N2CCOCC2)n2nc(CNC3CCOCC3)cc2n1 [Compound 27, N-({5-[2-(difluoromethyl)-1H-1,3-benzimidazol-1-yl]-7-(morpholin-4-yl)pyrazolo[1,5-a]pyrimidin-2-yl}methyl)oxan-4-amine] | – | – | 1810 | 20.5 | 11 | – | –
